Test results reported in US10800791B2, “Triazole ACC inhibitors and uses thereof” (Gilead Apollo, LLC, priority 2015, dated 2020).
≈ marks a conversion by molar mass, not a printed value. Where two headings read alike, the source gives them in different places.

Assays:
human (hACC2) = human (hACC2) (Homo sapiens, UniProt O00763); assay: In vitro ACC inhibition assay (ADP-Glo), hACC2; format: biochemical; conditions: 5 nM ACC2, 20 μM ATP, 20 μM acetyl-CoA
Experimental: The detailed procedure is as follows. […] 10 μL ADP glo reagent was added. […] 20 μL kinase detection reagent was added.

C. krusei = assay: Antifungal Activity Assay (broth microtiter MIC), C. krusei; format: cell-based, Candida krusei; conditions: Pichia kudriavzevii, ATCC6258, 48 h
Outline: (§1)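 MICs were scored by eye at 48 h relative to the growth control. Plates followed CLSI M27-A3, with Candida suspensions in RPMI 1640+MOPS giving a final 2.5×10^3 CFU/mL; the colonies came from Sabouraud agar grown overnight at 35 °C.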

C. parapsilosis = assay: Antifungal Activity Assay (broth microtiter MIC), C. parapsilosis; format: cell-based, Candida parapsilosis; conditions: Lodderomyces parapsilosis, ATCC22019, 48 h
Outline: as §1

Botrtyis cinerea (Bc) = assay: Growth inhibition assay of fungal pathogens, Bc; format: cell-based; conditions: 48 h
Outline: (§2)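 Spore suspension in 17% V8 liquid media; cpd final 50/10/2 or 2/0.4/0.08 ppm, 2% DMSO. OD600 + visual, 24 & 48 h; % inhibition at 48 h vs 2% DMSO ctrl.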

[1] = system: Fusarium moniliforme (Fm); assay: Growth inhibition assay of fungal pathogens, Fm; format: cell-based; conditions: for IC90: Fusarium verticillioides, 48 h, read-out: Concentration at 90% Inhibition Fm
Outline: as §2

[2] = system: Fusarium virguliforme (Fv); assay: Growth inhibition assay of fungal pathogens, Fv; format: cell-based; conditions: 48 h
Outline: as §2

[3] = system: Phytophthora capsici (Pc); assay: Growth inhibition assay of fungal pathogens, Pc; format: cell-based; conditions: 48 h
Outline: as §2

Rhizoctonia solani (Rs) = assay: Growth inhibition assay of fungal pathogens, Rs; format: cell-based; conditions: 48 h
Septoria tritici (St) = assay: Growth inhibition assay of fungal pathogens, St; format: cell-based; conditions: Zymoseptoria tritici, 48 h
Outline: as §2

fungal (fACC2) = fungal (fACC2) (UniProt Q00955); conditions: read-out: fACC2 (in vitro ACC2 Inhibition Assay, IC50), ADP-Glo, 5 nM ACC2, 20 μM ATP, 20 μM acetyl-CoA
[4] = Fusarium moniliforme, growth inhibition at 48 hours vs 2% DMSO control

Chain of fungal (fACC2) (Q00955 whole entry): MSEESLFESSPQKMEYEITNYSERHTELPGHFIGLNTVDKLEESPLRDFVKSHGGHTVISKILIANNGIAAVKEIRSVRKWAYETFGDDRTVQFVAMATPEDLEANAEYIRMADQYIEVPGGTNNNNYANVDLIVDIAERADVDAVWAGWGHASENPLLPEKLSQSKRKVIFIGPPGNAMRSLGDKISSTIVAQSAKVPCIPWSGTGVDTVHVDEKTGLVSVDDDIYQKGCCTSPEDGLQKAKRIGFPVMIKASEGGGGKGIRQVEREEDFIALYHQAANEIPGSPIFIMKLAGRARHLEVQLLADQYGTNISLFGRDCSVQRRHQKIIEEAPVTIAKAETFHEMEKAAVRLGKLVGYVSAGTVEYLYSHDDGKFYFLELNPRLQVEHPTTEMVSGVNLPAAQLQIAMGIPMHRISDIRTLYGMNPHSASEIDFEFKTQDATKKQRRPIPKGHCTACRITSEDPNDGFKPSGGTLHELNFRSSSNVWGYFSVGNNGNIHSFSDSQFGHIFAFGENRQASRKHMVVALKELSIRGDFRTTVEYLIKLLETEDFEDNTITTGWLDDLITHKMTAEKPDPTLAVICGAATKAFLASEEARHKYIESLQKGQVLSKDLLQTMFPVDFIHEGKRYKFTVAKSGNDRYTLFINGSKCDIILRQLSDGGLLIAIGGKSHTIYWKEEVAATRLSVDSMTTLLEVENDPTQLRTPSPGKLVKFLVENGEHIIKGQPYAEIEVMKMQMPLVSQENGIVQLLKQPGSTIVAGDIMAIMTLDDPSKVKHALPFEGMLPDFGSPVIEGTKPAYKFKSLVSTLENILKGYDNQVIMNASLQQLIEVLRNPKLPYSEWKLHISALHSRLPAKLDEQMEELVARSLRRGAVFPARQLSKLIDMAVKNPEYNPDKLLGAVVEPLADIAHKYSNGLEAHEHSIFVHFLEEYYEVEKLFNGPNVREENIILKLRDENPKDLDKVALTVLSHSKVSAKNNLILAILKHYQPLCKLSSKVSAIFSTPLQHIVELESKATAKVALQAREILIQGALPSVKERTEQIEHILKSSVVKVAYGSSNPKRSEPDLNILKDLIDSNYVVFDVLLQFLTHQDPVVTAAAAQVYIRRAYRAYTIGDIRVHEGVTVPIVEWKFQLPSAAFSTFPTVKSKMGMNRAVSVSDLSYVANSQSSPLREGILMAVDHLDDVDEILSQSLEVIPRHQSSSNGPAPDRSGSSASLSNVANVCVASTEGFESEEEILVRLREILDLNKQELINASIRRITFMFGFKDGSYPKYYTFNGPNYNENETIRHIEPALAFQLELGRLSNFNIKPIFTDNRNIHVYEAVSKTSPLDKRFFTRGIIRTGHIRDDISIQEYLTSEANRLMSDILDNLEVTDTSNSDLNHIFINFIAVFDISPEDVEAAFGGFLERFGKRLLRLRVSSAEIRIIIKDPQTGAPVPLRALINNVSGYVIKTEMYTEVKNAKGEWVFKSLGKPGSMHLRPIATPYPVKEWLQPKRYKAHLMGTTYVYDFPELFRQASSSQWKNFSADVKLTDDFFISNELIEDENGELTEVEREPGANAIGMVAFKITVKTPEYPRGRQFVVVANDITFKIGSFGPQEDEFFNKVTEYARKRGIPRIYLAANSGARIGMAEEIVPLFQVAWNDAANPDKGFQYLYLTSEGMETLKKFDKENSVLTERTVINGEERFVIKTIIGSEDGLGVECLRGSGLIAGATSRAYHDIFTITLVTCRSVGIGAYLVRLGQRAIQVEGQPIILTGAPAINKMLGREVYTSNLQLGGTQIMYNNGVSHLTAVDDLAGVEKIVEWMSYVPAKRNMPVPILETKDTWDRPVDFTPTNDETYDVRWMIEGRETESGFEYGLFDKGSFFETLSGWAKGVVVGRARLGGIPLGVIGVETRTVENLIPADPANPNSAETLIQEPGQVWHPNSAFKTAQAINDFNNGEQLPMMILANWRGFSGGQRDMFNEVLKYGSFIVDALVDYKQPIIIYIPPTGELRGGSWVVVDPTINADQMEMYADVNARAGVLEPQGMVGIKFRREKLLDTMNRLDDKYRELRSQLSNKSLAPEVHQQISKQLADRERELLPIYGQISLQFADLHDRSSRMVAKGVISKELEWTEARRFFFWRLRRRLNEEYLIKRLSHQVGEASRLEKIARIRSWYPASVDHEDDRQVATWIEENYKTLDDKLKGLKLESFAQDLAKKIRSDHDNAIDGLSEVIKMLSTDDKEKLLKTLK
Chain of human (hACC2) (O00763 whole entry): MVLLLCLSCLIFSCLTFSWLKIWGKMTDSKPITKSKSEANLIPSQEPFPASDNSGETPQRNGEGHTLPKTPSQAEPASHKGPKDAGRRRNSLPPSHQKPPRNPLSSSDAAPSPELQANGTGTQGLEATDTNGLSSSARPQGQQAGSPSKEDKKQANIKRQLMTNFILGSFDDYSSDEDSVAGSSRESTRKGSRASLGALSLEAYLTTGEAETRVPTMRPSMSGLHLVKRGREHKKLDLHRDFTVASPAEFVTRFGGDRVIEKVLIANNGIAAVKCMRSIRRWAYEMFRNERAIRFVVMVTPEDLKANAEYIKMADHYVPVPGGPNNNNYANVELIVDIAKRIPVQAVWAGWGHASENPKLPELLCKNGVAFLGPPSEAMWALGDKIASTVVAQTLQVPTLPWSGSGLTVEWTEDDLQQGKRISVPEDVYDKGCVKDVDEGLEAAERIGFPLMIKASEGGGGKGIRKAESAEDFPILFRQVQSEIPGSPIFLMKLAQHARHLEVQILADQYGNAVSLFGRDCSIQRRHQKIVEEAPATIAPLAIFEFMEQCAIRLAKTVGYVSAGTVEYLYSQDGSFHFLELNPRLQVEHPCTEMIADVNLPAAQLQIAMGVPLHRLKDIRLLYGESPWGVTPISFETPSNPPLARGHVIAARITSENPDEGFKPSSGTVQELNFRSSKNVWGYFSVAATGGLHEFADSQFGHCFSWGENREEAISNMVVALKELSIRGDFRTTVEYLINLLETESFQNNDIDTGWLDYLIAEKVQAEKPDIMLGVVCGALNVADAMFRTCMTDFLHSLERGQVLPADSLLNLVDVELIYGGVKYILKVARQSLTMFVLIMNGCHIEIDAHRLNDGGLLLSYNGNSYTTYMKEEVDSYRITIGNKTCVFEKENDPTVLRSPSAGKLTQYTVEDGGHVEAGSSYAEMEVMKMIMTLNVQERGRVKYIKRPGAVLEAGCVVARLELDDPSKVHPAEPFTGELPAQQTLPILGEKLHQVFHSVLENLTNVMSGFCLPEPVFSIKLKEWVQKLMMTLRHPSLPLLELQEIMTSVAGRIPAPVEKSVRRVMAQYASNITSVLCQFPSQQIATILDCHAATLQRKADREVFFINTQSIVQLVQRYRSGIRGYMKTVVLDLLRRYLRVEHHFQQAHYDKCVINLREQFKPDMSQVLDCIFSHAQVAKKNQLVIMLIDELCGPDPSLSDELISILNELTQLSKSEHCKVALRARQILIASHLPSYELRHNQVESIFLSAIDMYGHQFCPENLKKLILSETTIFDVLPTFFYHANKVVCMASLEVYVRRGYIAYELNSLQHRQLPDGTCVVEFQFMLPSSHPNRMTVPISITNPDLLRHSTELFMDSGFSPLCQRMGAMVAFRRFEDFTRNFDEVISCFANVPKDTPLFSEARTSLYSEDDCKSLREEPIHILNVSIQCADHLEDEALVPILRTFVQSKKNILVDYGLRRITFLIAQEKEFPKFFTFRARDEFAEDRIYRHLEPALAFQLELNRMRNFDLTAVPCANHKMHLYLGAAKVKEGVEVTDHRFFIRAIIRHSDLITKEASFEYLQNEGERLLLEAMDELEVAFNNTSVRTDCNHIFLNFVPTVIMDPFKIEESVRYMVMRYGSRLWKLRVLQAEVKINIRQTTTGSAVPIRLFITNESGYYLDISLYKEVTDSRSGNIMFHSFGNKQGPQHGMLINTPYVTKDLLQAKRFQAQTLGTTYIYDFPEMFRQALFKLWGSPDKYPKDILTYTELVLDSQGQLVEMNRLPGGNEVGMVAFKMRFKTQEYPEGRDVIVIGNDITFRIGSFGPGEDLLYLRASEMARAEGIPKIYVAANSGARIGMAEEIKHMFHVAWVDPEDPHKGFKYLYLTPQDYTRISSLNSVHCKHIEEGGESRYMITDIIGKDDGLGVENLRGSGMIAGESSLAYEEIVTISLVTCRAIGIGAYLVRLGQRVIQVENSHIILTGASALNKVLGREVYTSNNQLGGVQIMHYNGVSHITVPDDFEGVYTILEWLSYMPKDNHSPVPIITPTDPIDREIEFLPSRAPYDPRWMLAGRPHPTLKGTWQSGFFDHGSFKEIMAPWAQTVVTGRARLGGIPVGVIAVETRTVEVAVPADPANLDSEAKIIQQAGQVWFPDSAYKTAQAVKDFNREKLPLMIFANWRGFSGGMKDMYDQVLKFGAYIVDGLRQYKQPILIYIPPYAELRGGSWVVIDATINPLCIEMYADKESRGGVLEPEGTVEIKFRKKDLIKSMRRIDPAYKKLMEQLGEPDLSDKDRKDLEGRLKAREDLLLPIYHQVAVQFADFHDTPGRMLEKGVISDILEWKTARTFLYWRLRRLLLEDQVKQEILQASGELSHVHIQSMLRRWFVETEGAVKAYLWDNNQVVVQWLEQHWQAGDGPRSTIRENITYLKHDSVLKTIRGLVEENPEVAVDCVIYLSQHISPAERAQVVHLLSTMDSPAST

Compound `COc1ccc(F)cc1[C@H](Cn1c(=O)n(C(C)(C)C(=O)N2CCCC2)c(=O)c2c(C)c(-n3nccn3)sc21)OC[C@@H](C)O` [Compound I-46, 1-((R)-2-(5-fluoro-2-methoxyphenyl)-2-((R)-2-hydroxypropoxy)ethyl)-5-methyl-3-(2-methyl-1-oxo-1-(pyrrolidin-1-yl)propan-2-yl)-6-(2H-1,2,3-triazol-2-yl)thieno[2,3-d]pyrimidine-2,4(1H,3H)-dione] has an IC50 (human (hACC2); Table 2a) of 5 to 10 nM, an IC50 (human (hACC2); Table 2b, additional results) of 5 to 10 nM and an MIC (C. krusei; Table 3a, ATCC 6258, 3 replicates, MIC recorded at 48 h, read-out: MIC, C. krusei ATCC 6258) of 0.25 to 1 µg/mL (≈ 0.407 to 1.63 µM). The MIC (C. krusei; Table 3b (additional results), ATCC 6258, 3 replicates, MIC recorded at 48 h, read-out: MIC, C. krusei ATCC 6258) was 2.01 to 4 µg/mL (≈ 3.27 to 6.51 µM), the MIC (C. parapsilosis; Table 3a, ATCC 22019, 3 replicates, MIC recorded at 48 h, read-out: MIC, C. parapsilosis ATCC 22019) was 1.1 to 2 µg/mL (≈ 1.79 to 3.25 µM) and the MIC (C. parapsilosis; Table 3b (additional results), ATCC 22019, 3 replicates, MIC recorded at 48 h, read-out: MIC, C. parapsilosis ATCC 22019) was 1.01 to 2 µg/mL (≈ 1.64 to 3.25 µM). For the same compound, the IC90 (Botrtyis cinerea (Bc); Botrtyis cinerea, growth inhibition at 48 hours vs 2% DMSO control, read-out: Concentration at 90% Inhibition Bc) was 2 µg/mL (≈ 3.25 µM), the IC90 (Botrtyis cinerea (Bc); Botrtyis cinerea, growth inhibition vs 2% DMSO control at 48 hours, read-out: Concentration at 90% Inhibition Bc) was 2 µg/mL (≈ 3.25 µM) and the IC90 [1, 4] was 0.08 µg/mL (≈ 0.13 µM). The IC90 ([1]; Fusarium moniliforme, growth inhibition vs 2% DMSO control at 48 hours) was 0.08 µg/mL (≈ 0.13 µM), the IC90 ([2]; growth inhibition at 48 hours vs 2% DMSO control, read-out: Concentration at 90% Inhibition Fv) was 2 µg/mL (≈ 3.25 µM) and the IC90 ([2]; growth inhibition vs 2% DMSO control at 48 hours, read-out: Concentration at 90% Inhibition Fv) was 2 µg/mL (≈ 3.25 µM). For the same compound, the IC90 ([3]; growth inhibition at 48 hours vs 2% DMSO control, read-out: Concentration at 90% Inhibition Pc) was over 50 µg/mL, the IC90 ([3]; growth inhibition vs 2% DMSO control at 48 hours, read-out: Concentration at 90% Inhibition Pc) was over 50 µg/mL and the IC90 (Rhizoctonia solani (Rs); mycelial plugs, growth inhibition at 48 hours vs 2% DMSO control, read-out: Concentration at 90% Inhibition Rs) was 0.4 µg/mL (≈ 0.651 µM). The IC90 (Rhizoctonia solani (Rs); mycelial plugs, growth inhibition vs 2% DMSO control at 48 hours, read-out: Concentration at 90% Inhibition Rs) was 0.4 µg/mL (≈ 0.651 µM), the IC90 (Septoria tritici (St); Septoria tritici, growth inhibition at 48 hours vs 2% DMSO control, read-out: Concentration at 90% Inhibition St) was over 50 µg/mL and the IC90 (Septoria tritici (St); Septoria tritici, growth inhibition vs 2% DMSO control at 48 hours, read-out: Concentration at 90% Inhibition St) was over 50 µg/mL. For the same compound, the IC50 (fungal (fACC2); Table 2a) was 1 to 5 nM and the IC50 (fungal (fACC2); Table 2b, additional results) was 1 to 5 nM.
In the case of `COc1ccc(F)cc1[C@H](Cn1c(=O)n(C(C)(C)C(=O)NC(C)C)c(=O)c2c(C)c(-n3nccn3)sc21)OC[C@H](C)O` [Compound I-47, 2-(1-((R)-2-(5-fluoro-2-methoxyphenyl)-2-((S)-2-hydroxypropoxy)ethyl)-5-methyl-2,4-dioxo-6-(2H-1,2,3-triazol-2-yl)-1,4-dihydro-thieno[2,3-d]pyrimidin-3(2H)-yl)-N-isopropyl-2-methylpropanamide], the IC50 (human (hACC2); Table 2a) is reported as 10 to 40 nM, the IC50 (human (hACC2); Table 2b, additional results) is reported as 10 to 40 nM and the MIC (C. krusei; read-out: MIC, C. krusei ATCC 6258, Table 3a, 3 replicates, MIC recorded at 48 h) is reported as 0.06 to 0.24 µg/mL (≈ 0.0996 to 0.398 µM). It also gave an MIC (C. krusei; read-out: MIC, C. krusei ATCC 6258, Table 3b (additional results), 3 replicates, MIC recorded at 48 h) of 1.01 to 2 µg/mL (≈ 1.68 to 3.32 µM), an MIC (C. parapsilosis; read-out: MIC, C. parapsilosis ATCC 22019, Table 3a, 3 replicates, MIC recorded at 48 h) of 0.25 to 1 µg/mL (≈ 0.415 to 1.66 µM) and an MIC (C. parapsilosis; read-out: MIC, C. parapsilosis ATCC 22019, Table 3b (additional results), 3 replicates, MIC recorded at 48 h) of 1.01 to 2 µg/mL (≈ 1.68 to 3.32 µM). For the same compound, the IC90 (Botrtyis cinerea (Bc); read-out: Concentration at 90% Inhibition Bc, Botrtyis cinerea, growth inhibition at 48 hours vs 2% DMSO control) was 0.4 µg/mL (≈ 0.664 µM), the IC90 (Botrtyis cinerea (Bc); read-out: Concentration at 90% Inhibition Bc, Botrtyis cinerea, growth inhibition vs 2% DMSO control at 48 hours) was 0.4 µg/mL (≈ 0.664 µM) and the “Concentration at 90% Inhibition Fm” value [1, 4] was “AA (compound concentration of 0.08 ppm at 90% inhibition of fungal pathogens)”. The IC90 [1] was 0.08 µg/mL (≈ 0.133 µM), the IC90 ([2]; read-out: Concentration at 90% Inhibition Fv, Fusarium virguliforme, growth inhibition at 48 hours vs 2% DMSO control) was 0.4 µg/mL (≈ 0.664 µM) and the IC90 ([2]; read-out: Concentration at 90% Inhibition Fv, Fusarium virguliforme, growth inhibition vs 2% DMSO control at 48 hours) was 0.4 µg/mL (≈ 0.664 µM). It also gave an IC90 ([3]; read-out: Concentration at 90% Inhibition Pc, Phytophthora capsici, growth inhibition at 48 hours vs 2% DMSO control) of over 50 µg/mL, an IC90 ([3]; read-out: Concentration at 90% Inhibition Pc, Phytophthora capsici, growth inhibition vs 2% DMSO control at 48 hours) of over 50 µg/mL and an IC90 (Rhizoctonia solani (Rs); read-out: Concentration at 90% Inhibition Rs, Rhizoctonia solani, mycelial plugs, growth inhibition at 48 hours vs 2% DMSO control) of 0.4 µg/mL (≈ 0.664 µM). The IC90 (Rhizoctonia solani (Rs); read-out: Concentration at 90% Inhibition Rs, Rhizoctonia solani, mycelial plugs, growth inhibition vs 2% DMSO control at 48 hours) was 0.4 µg/mL (≈ 0.664 µM), the IC90 (Septoria tritici (St); read-out: Concentration at 90% Inhibition St, Septoria tritici, growth inhibition at 48 hours vs 2% DMSO control) was 10 µg/mL (≈ 16.6 µM) and the IC90 (Septoria tritici (St); read-out: Concentration at 90% Inhibition St, Septoria tritici, growth inhibition vs 2% DMSO control at 48 hours) was over 50 µg/mL. It also gave an IC50 (fungal (fACC2); Table 2a) of 1 to 5 nM and an IC50 (fungal (fACC2); Table 2b, additional results) of 1 to 5 nM.
